For orientation: IC50 means the midpoint of a concentration-inhibition curve.

In patent US20170001990A1 (Genentech, Inc., priority 2014, published 2017) one finds IC50 data, which are given here for 30 molecules.

This assay has as its target Human recombinant carboxy-terminal his-tagged LDHA (amino acids 2-332) (Homo sapiens, UniProt P00338). The assay is described as follows: LDHA enzyme inhibition assay (NADH fluorescence). The conditions noted are these: LDHA IC50 (μM), 1 nM LDHA, NADH and pyruvate, stereochemistry of tested sample given.
Protocol: Test compounds were diluted in 100% DMSO with 1:3 serial dilutions. […] For the enzyme reaction, serially diluted compounds were added to a mixture of enzyme and NADH. […] Following the baseline read, pyruvate was added to the assay plates and the plates were read with excitation 340 nm and emission 480 nm for 10 minutes every 2.5 seconds. A suitable linear timeframe was selected (150-400 s) to calculate the slope of each concentration tested. The raw data were fitted to 4-parameter dose-response curves using the following equation:
fit=(A+((B−A)/(1+((C/x)̂D))))
inv=(C/((((B−A)/(y−A))−)̂(1/D)))
res=(y−fit) • where A=minimum y, B=maximum y, C=50% y max, and D=slope factor.
The curve bottom was set to the background rate (initial 5 second recording prior to addition of pyruvate) and curve top was set to no inhibitor (DMSO only) control wells rate.
The compounds of the present invention were tested for their capacity to inhibit LDHA activity and activation as described in the enzyme inhibition assay described above.
Take `O=C1CC(c2ccsc2)(c2cccc(OCC3COC3)n2)NC(=O)C1Sc1ccccc1Cl` (single isomer, unassigned) [Example 236, 3-(2-chlorophenyl)sulfanyl-6-[6-(oxetan-3-ylmethoxy)-2-pyridyl]-6-(3-thienyl) piperidine-2,4-dione]: the concentration for half-maximal inhibition (IC50) turned out to be 0.025 µM. The result for `O=C1CC(c2ccsc2)(c2cccc(Oc3cccc4c3NCCC4)n2)NC(=O)C1Sc1ccccc1Cl` (stereo not drawn) [Example 102, 3-(2-chlorophenyl)sulfanyl-6-[6-(1,2,3,4-tetrahydro-quinolin-8-yloxy)-2-pyridyl]-6-(3-thienyl) piperidine-2,4-dione] reads 0.018 µM; that for `O=C1CC(c2ccsc2)(c2cccc(-c3ccncc3)n2)NC(=O)C1Sc1ccccc1Cl` (stereo not drawn) [Example 260, 6-([2,4′-bipyridin]-6-yl)-3-((2-chlorophenyl)thio)-6-(thiophen-3-yl)piperidine-2,4-dione], 0.006 µM; that for `O=C1CC(c2ccsc2)(c2cccc(Oc3ccc(F)c(Br)c3)n2)NC(=O)C1Sc1ccccc1Cl` (single isomer, unassigned) [Example 143, 6-[6-(3-bromo-4-fluoro-phenoxy)-2-pyridyl]-3-(2-chlorophenyl)sulfanyl-6-(3-thienyl)piperidine-2,4-dione], 0.033 µM. As for `O=C1CC(c2ccsc2)(c2cccc(OCCC3CCCCC3)n2)NC(=O)C1Sc1ccccc1Cl` (single isomer, unassigned) [Example 161, 3-(2-chlorophenyl)sulfanyl-6-[6-(2-cyclohexylethoxy)-2-pyridyl]-6-(3-thienyl) piperidine-2,4-dione], the IC50 is 0.019 µM. Consider `O=C1CC(c2ccsc2)(c2cccc(OCC3CCCO3)n2)NC(=O)C1Sc1ccccc1Cl` (single isomer, unassigned) [Example 239, 3-(2-chlorophenyl)sulfanyl-6-[6-(tetrahydrofuran-2-ylmethoxy)-2-pyridyl]-6-(3-thienyl)piperidine-2,4-dione], for which the IC50 turned out to be 0.015 µM.

On to `CC[C@@H](Nc1cccc(C2(c3ccsc3)CC(=O)C(Sc3ccccc3Cl)C(=O)N2)n1)c1ccc(F)c(Cl)c1` (stereo partly drawn) [Example 297, 6-(6-(((R)-1-(3-chloro-4-fluorophenyl)propyl)amino)pyridin-2-yl)-3-((2-chlorophenyl)thio)-6-(thiophen-3-yl)piperidine-2,4-dione], for which the half-maximal inhibitory concentration (IC50) amounted to 0.149 µM.

Regarding `CN(c1ccc(F)cc1)c1cccc(C2(c3ccsc3)CC(=O)C(Sc3ccccc3Cl)C(=O)N2)n1` (single isomer, unassigned) [Example 262, 3-((2-chlorophenyl)thio)-6-(6-((4-fluorophenyl) (methyl)amino)pyridin-2-yl)-6-(thiophen-3-yl)piperidine-2,4-dione], the IC50 stood at 0.104 µM.

Regarding `O=C1CC(c2ccsc2)(c2cccc(Oc3cc(F)cc(CO)c3)n2)NC(=O)C1Sc1ccccc1Cl` (single isomer, unassigned) [Example 234, 3-(2-chlorophenyl)sulfanyl-6-[6-[3-fluoro-5-(hydroxy-methyl)phenoxy]-2-pyridyl]-6-(3-thienyl)piperidine-2,4-dione], the IC50 came to 0.004 µM. For `O=C1CC(c2ccsc2)(c2cccc(CCc3ccc(F)cc3)n2)NC(=O)C1Sc1ccccc1Cl` (single isomer, unassigned) [Example 294, 3-((2-chlorophenyl)thio)-6-(6-(4-fluorophenethyl)pyridin-2-yl)-6-(thiophen-3-yl)piperidine-2,4-dione], the IC50 worked out at 0.036 µM. Turning to `COc1cccc(N(C)c2cccc(C3(c4ccsc4)CC(=O)C(Sc4ccccc4Cl)C(=O)N3)n2)c1` (stereo not drawn) [Example 274, 3-((2-chlorophenyl)thio)-6-(6-((3-methoxyphenyl) (methyl)amino)pyridin-2-yl)-6-(thiophen-3-yl) piperidine-2,4-dione], the IC50 was found to be 0.157 µM. `O=C1CC(c2ccc(N3CCOCC3)cc2)(c2cccc(Br)n2)NC(=O)C1Sc1ccccc1Cl` (stereo not drawn) [Example 38, 6-(6-bromopyridin-2-yl)-3-((2-chlorophenyl)thio)-6-(4-morpholinophenyl)piperidine-2,4-dione]: the IC50 came out at 0.004 µM. On to `CC1(COc2cccc(C3(c4ccsc4)CC(=O)C(Sc4ccccc4Cl)C(=O)N3)n2)CC1` (single isomer, unassigned) [Example 206, 3-(2-chlorophenyl)sulfanyl-6-[6-[(1-methylcyclopropyl)methoxy]-2-pyridyl]-6-(3-thienyl)piperidine-2,4-dione], for which the IC50 was 0.027 µM.

Take `O=C1CC(c2ccsc2)(c2cccc(OCCN3CCCC3=O)n2)NC(=O)C1Sc1ccccc1Cl` (stereo not drawn) [Example 189, 3-(2-chlorophenyl)sulfanyl-6-[6-[2-(2-oxopyrrolidin-1-yl)ethoxy]-2-pyridyl]-6-(3-thienyl)piperidine-2,4-dione]: the concentration for half-maximal inhibition (IC50) was determined as 0.15 µM. The result for `COCCCOc1cccc(C2(c3ccsc3)CC(=O)C(Sc3ccccc3Cl)C(=O)N2)n1` (single isomer, unassigned) [Example 237, 3-(2-chlorophenyl)sulfanyl-6-[6-(3-methoxypropoxy)-2-pyridyl]-6-(3-thienyl) piperidine-2,4-dione] reads 0.094 µM; that for `O=C1CC(c2ccsc2)(c2cccc(Cc3cc(F)cc(F)c3)n2)NC(=O)C1Sc1ccccc1Cl` (single isomer, unassigned) [Example 129, 3-((2-chlorophenyl)thio)-6-(6-(3,5-difluorobenzyl)pyridin-2-yl)-6-(thiophen-3-yl)piperidine-2,4-dione], 0.02 µM. With `O=C1CC(c2ccsc2)(c2cccc(NCCC3CC3)n2)NC(=O)C1Sc1ccccc1Cl` (stereo not drawn) [Example 131, 3-(2-chlorophenyl)sulfanyl-6-[6-(2-cyclopropyl-ethylamino)-2-pyridyl]-6-(3-thienyl)piperidine-2,4-dione], the half-inhibitory concentration (IC50) is 0.046 µM. For `CC(C)Oc1nc(C2(c3ccsc3)CC(=O)C(Sc3ccccc3Cl)C(=O)N2)ccc1N1CCOCC1` (stereo not drawn) [Example 73, 3-((2-chlorophenyl)thio)-6-(6-isopropoxy-5-morpholinopyridin-2-yl)-6-(thiophen-3-yl) piperidine-2,4-dione], the IC50 was determined as 0.111 µM. For the molecule `O=C1CC(c2ccsc2)(c2cccc(Oc3ccc(OC(F)(F)F)cc3)n2)NC(=O)C1Sc1ccccc1Cl` (stereo not drawn) [Example 76, 3-(2-chlorophenyl)sulfanyl-6-(3-thienyl)-6-[6-[4-(trifluoromethoxy)phenoxy]-2-pyridyl] piperidine-2,4-dione], the IC50 was 0.015 µM. As for `CN(c1ccc(F)cc1)c1cccc(C2(c3ccsc3)CC(=O)C(Sc3ccccc3Cl)C(=O)N2)n1` (single isomer, unassigned) [Example 265, 3-((2-chlorophenyl)thio)-6-(6-((4-fluorophenyl) (methyl)amino)pyridin-2-yl)-6-(thiophen-3-yl) piperidine-2,4-dione], the IC50 came to 0.022 µM.

For `O=C1CC(c2ccsc2)(c2cccc(Oc3ccc(F)cc3F)n2)NC(=O)C1Sc1ccccc1Cl` (stereo not drawn) [Example 50, 3-(2-chlorophenyl) sulfanyl-6-[6-(2,4-difluorophenoxy)-2-pyridyl]-6-(3-thienyl)piperidine-2,4-dione], the IC50 came to 0.022 µM. For the molecule `O=C1CC(c2ccsc2)(c2cccc(OCC3CCCO3)n2)NC(=O)C1Sc1ccccc1Cl` (single isomer, unassigned) [Example 221, 3-(2-chlorophenyl)sulfanyl-6-[6-(tetrahydrofuran-2-ylmethoxy)-2-pyridyl]-6-(3-thienyl)piperidine-2,4-dione], the IC50 turned out to be 0.32 µM.

In the case of `O=C1CC(c2ccsc2)(c2cccc(Oc3ccc(F)c(F)c3)n2)NC(=O)C1Sc1ccccc1Cl` (single isomer, unassigned) [Example 77, 3-(2-chlorophenyl)sulfanyl-6-[6-(3,4-difluoro-phenoxy)-2-pyridyl]-6-(3-thienyl)piperidine-2,4-dione], the IC50 was 0.031 µM. Take `CC(C)CCOc1cccc(C2(c3ccsc3)CC(=O)C(Sc3ccccc3Cl)C(=O)N2)n1` (single isomer, unassigned) [Example 124, 3-((2-chlorophenyl)thio)-6-(6-(isopentyloxy)pyridin-2-yl)-6-(thiophen-3-yl)piperidine-2,4-dione]: the half-inhibitory concentration (IC50) came to 0.003 µM.

On to `O=C1CC(c2ccsc2)(c2cccc(Oc3ccc(F)nc3Cl)n2)NC(=O)C1Sc1ccccc1Cl` (stereo not drawn) [Example 324, 6-[6-[(2-chloro-6-fluoro-3-pyridyl)oxy]-2-pyridyl]-3-(2-chlorophenyl) sulfanyl-6-(3-thienyl) piperidine-2,4-dione], for which the IC50 is 0.084 µM.

On to `O=C1CC(c2ccsc2)(c2cccc(OC3CCC(F)(F)CC3)n2)NC(=O)C1Sc1ccccc1Cl` (stereo not drawn) [Example 306, 3-((2-chlorophenyl)thio)-6-(6-((4,4-difluoro-cyclohexyl)oxy)pyridin-2-yl)-6-(thiophen-3-yl)piperidine-2,4-dione], for which the IC50 was determined as 0.129 µM. For the molecule `O=C(NCC1CC1)c1cccc(C2(c3ccsc3)CC(=O)C(Sc3ccccc3Cl)C(=O)N2)n1` (stereo not drawn) [Example 242, 6-[5-(2-chlorophenyl)sulfanyl-4,6-dioxo-2-(3-thienyl)-2-piperidyl]-N-(cyclopropylmethyl) pyridine-2-carboxamide], the concentration for half-maximal inhibition (IC50) was 0.004 µM. For `O=C1CC(c2ccsc2)(c2cccc(Cc3ccc(F)cc3)n2)NC(=O)C1Sc1ccccc1Cl` (stereo not drawn) [Example 257, 3-((2--chlorophenyl)thio)-6-(6-(4-fluorobenzyl)pyridin-2-yl)-6-(thiophen-3-yl)piperidine-2,4-dione], the IC50 is 0.016 µM. With `O=C1C[C@](c2ccsc2)(c2cccc(Oc3ccc(C(F)(F)F)cc3)n2)NC(=O)C1Sc1ccccc1Cl` (stereo partly drawn) [Example 330, (6S)-3-(2-chlorophenyl) sulfanyl-6-(3-thienyl)-6-[6-[4-(trifluoromethyl)phenoxy]-2-pyridyl] piperidine-2,4-dione], the IC50 was determined as 0.041 µM. For the molecule `O=C1CC(c2ccsc2)(c2cccc(OCC3CCCC3)n2)NC(=O)C1Sc1ccccc1Cl` (single isomer, unassigned) [Example 194, 3-(2-chlorophenyl)sulfanyl-6-[6-(cyclopentyl-methoxy)-2-pyridyl]-6-(3-thienyl)piperidine-2,4-dione], the concentration for half-maximal inhibition (IC50) stood at 0.005 µM.
